Measurements from patent publication US7504390B2, “Benzoxazepine derivatives and their use as AMPA receptor stimulators” (N.V. Organon, priority 2001, dated 2009).

Tested on: AMPA receptor
Test: Patch clamp whole cell electrophysiology: glutamate-evoked steady state current in cultured hippocampal neurons
Type: cell-based, Sprague-Dawley rats
Conditions: 10 μM compound in extracellular solution; glutamate 0.5 mM; holding potential −60 mV; cultured rat hippocampal neurons
Excerpt: The benzoxazepines of the invention are AMPA receptor stimulators, as can be determined by an increase in steady state current induced by application of glutamate in a conventional whole cell patch clamp method when a benzoxazepine of the invention is present (see Example 30 and Table I). The compounds may be used in the treatment of neurological and psychiatric diseases where an enhancement of synaptic responses mediated by AMPA receptors is required, such as neuro-degenerative disorders, cognitive or memory dysfunction, memory and learning disorders such as can result from ageing, attention disorder, trauma, stroke, epilepsy, Alzheimer's disease, depression, schizophrenia, psychotic disorders, anxiety, sexual dysfunctions, autism, or a disorder or disease resulting from neurotic agents or substance abuse, and alcohol intoxication.
Hippocampal neurons were prepared from embryonic or 1-3 day old Sprague-Dawley rats which were decapitated and the heads immediately placed in ice cold HBS (HEPES Buffered Solution: 130 mM NaCl, 5.4 mM KCl, 10 mM HEPES, 1.0 mM MgCl2, 1.8 CaCl2, 25 mM glucose, adjusted to pH 7.4). The whole brain was excised and placed on pre-sterilised filter paper, soaked in HBS and the cerebellum was removed. The brain was chopped and an enzyme solution (0.5 mg/ml protease X and 0.5 mg/ml protease in HBS) was added and subsequently left for 40 minutes at room temperature to digest before trituration. Cells were resuspended and then counted to give a final concentration of 1.5×10^8 per ml. Cells were aliquoted onto poly-D-lysine- and Matrigel®-treated coverslips and left to incubate at 37° C. for 1-2 hours. When incubation was complete, 1 ml of growth medium was added to each well containing a coverslip and the cells were returned to the incubator. After 3-5 days the mitotic inhibitor cytosine arabinoside (5 μM) was added and the cells returned to the incubator until required.
The whole cell configuration of the patch clamp technique (Hamill et al., Pflũgers Arch. 1981, 39, 85-100) was used to measure glutamate-evoked currents from postnatal hippocampal neurons maintained in culture for 4-7 days. A glass coverslip containing the culture was transferred to the recording chamber (Warner Instrument Corp., Hamden, Conn.) mounted on the stage of an inverted microscope (Nikon, Kingston, UK). The recording chamber contained 1-2 ml extracellular solution (145 mM NaCl, 5.4 mM KCl, 10 mM HEPES, 0.8 mM MgCl2, 1.8 CaCl2, 10 mM glucose and 30 mM sucrose, adjusted to pH 7.4 with 1M NaOH) and was constantly perfused at a rate of 1 ml/min. Recordings were performed at room temperature (20-22° C.) using an Axopatch 200B amplifier (Axon Instruments Ltd., Foster City, Calif.). Data acquisition and analysis was performed using Signal software (Cambridge electronic Design Ltd., Cambridge, UK). Pipettes were manufactured from GC120F-10 glass (Harvard Apparatus, Edenbridge UK) using a model P-87 electrode puller (Sutter Instruments Co., Novarto, Calif.). The patch electrodes had typical resistances of between 3-5 MΩ when filled with intracellular solution (140 mM potassium gluconate, 20 mM HEPES, 1.1 mM EGTA, 5 mM phosphocreatine, 3 mM ATP, 0.3 mM GTP, 0.1 mM CaCl2, 5 mM MgCl2, adjusted to pH 7.4 with 1M KOH).
Cells were voltage clamped at a holding potential of −60 mV and glutamate (0.5 mM) was applied using a 12 channel semi-rapid drug application device (DAD-12. Digitimer Ltd., Welwyn Garden City, UK). The agonist glutamate was applied for 1 s every 30 s. […] Between applications saline flowed to clear any dead volume in the system. For each application steady-state currents were plotted from the difference in baseline and steady state current and averaged over 300 ms.
Two solutions of the compound in extracellular solution were made up, one with glutamate and one without. The protocol was: 10 second application of compound, 1 second application of compound+glutamate and then 10 second wash with saline, then a 10 second delay. […]

Question: For `O=C(c1ccc2c(c1)C(=O)N1CCC[C@H]1CO2)N1CCOCC1` [Example 16A, (S)-7-(morpholinocarbonyl)-2,3,11,11a-tetrahydro-1H,5H-pyrrolo[2,1-c][1,4]-benzoxazepine-5-one], which “% Increase In steady state current at 10 μM” value is on record?
Answer: 24%

Question: For `CC1(C)COC2COc3ccccc3C(=O)N21` (stereo not drawn) [Example 24, 2,11,11a-Trihydro-3,3dimethyloxazolidinyl[2,1-c][1,4]-benzoxazepin-5-one], which “% Increase In steady state current at 10 μM” value is on record?
Answer: 18%

Question: With `O=C1c2cc(F)ccc2OC[C@@H]2CCCN12` [Example 2, (S)-7-Fluoro-2,3,11,11a-tetrahydro-1H,5H-pyrrolo[2,1-c][1,4]benzoxazepine-5-one] as the molecule, how does the “% Increase In steady state current at 10 μM” value read?
Answer: 19%

Question: For `CC(=O)Nc1ccc2c(c1)C(=O)N1CCC[C@H]1CO2` [Example 14, (S)-N-(2,3,11,11a-tetrahydro-5-oxo-1H,5H-pyrrolo[2,1-a][1,4]benzoxazepin-7-yl)-acetamide], which “% Increase In steady state current at 10 μM” value is on record?
Answer: 49%

Question: Which “% Increase In steady state current at 10 μM” value does the source give for `O=C1c2ccccc2OC[C@H]2CCCN12` [(R)-2,3,11,11a-tetrahydro-1H,5H-pyrrolo[2,1-c][1,4]benzoxazepine-5-one, reference compound] here?
Answer: 24%

Question: For `O=C1c2cccc(F)c2OC[C@H]2CCCN12` [Example 3A, (R)-9-Fluoro-2,3,11,11a-tetrahydro-1H,5H-pyrrolo[2,1c][1,4]benzoxazepine-5-one], which “% Increase In steady state current at 10 μM” value is on record?
Answer: 23%

Question: With `CC[C@@H]1Oc2ccccc2C(=O)N2CCC[C@@H]12` [Example 20B, (11S. 11aS)-11-Ethyl-2,3,11,11a-tetrahydro-1H,5H-pyrrolo[2,1-c][1,4]benzoxazepine-5-one] as the molecule, how does the “% Increase In steady state current at 10 μM” value read?
Answer: 28%

Question: For `O=C1c2ccccc2OCC2COCCN12` (stereo not drawn) [Example 22, 6,6a-Dihydro-12H-Morpholino[3,4-c][1,4]benzoxazepin-12-one], which “% Increase In steady state current at 10 μM” value is on record?
Answer: 31%

Question: With `NC(=O)c1ccc2c(c1)C(=O)N1CCC[C@H]1CO2` [Example 17A, (S)-7-(aminocarbonyl)-2,3,11,11a-tetrahydro-1H,5H-pyrrolo[2,1-c][1,4]benzoxazeline-5-one] as the molecule, how does the “% Increase In steady state current at 10 μM” value read?
Answer: 8%

Question: For `COc1ccc2c(c1)OC[C@@H]1CCCN1C2=O` [Example 11, (S)-8-Methoxy-2,3,11,11a-tetrahydro-1H,5H-pyrrolo[2,1-c][1,4]benzoxazepine-5-one], which “% Increase In steady state current at 10 μM” value is on record?
Answer: 21%

Question: Which “% Increase In steady state current at 10 μM” value does the source give for `O=C1c2ccccc2OC[C@@H]2C[C@H](F)CN12` [Example 26, (2S,11aS)2-Fluoro-23,11,11a-tetrahydro-1H,5H-pyrrolo[2,1-c][1,4]benzoxazepine-5-one] here?
Answer: 24%

Question: With `O=C1c2cccc(F)c2OC[C@@H]2CCCN12` [Example 3B, (S)-9-Fluoro-2,3,11,11a-tetrahydro-1H,5H-pyrrolo[2,1-c][1,4]benzoxazepine-5-one] as the molecule, how does the “% Increase In steady state current at 10 μM” value read?
Answer: 20%

Question: With `O=C1c2ccccc2OC[C@@H]2CCN12` [Example 23, (S)-1,2,10,10a-Tetrahydroazetidinyl[2,1-c][1,4]benzoxazepin-4-one] as the molecule, how does the “% Increase In steady state current at 10 μM” value read?
Answer: 16%

Question: With `O=C1c2ccccc2OC[C@@H]2CC(F)(F)CN12` [Example 28, (2S)-2,2-Difluoro-2,3,11,11a-tetrahydro-1H,5H-pyrrolo[2,1-c][1,4]benzoxazepine-5-one] as the molecule, how does the “% Increase In steady state current at 10 μM” value read?
Answer: 9%

Question: For `O=C1c2cc(F)ccc2OC[C@H]2CCCN12` [Example 1, (R)-7-Fluoro-2,3,11,11a-tetrahydro-1H,5H-pyrrolo[2,1-c][1,4]benzoxazepine-5-one], which “% Increase In steady state current at 10 μM” value is on record?
Answer: 17%

Question: For `O=C1c2ccccc2OC[C@@H]2CCCN12` [(S)-2,3,11,11a-tetrahydro-1H,5H-pyrrolo[2,1-c][1,4]benzoxazepine-5-one, reference compound], which “% Increase In steady state current at 10 μM” value is on record?
Answer: 53%

Question: For `O=C1c2ccccc2OC[C@@H]2C[C@@H](O)CN12` [Example 25, (2R,11aS)-2-Hydroxy-2,3,11,11a-tetrahydro-1H,5H-pyrrolo[2,1-c][1,4]benzoxazepine-5-one], which “% Increase In steady state current at 10 μM” value is on record?
Answer: 31%

Question: With `O=S1(=O)c2ccccc2OC[C@@H]2CCCN21` [Example 10, (S)-2,3,11,11,a-tetrahydro-1H,5H-pyrrolo[2,1-c][5,1,4]benzthiaoxazepine-5-dioxide] as the molecule, how does the “% Increase In steady state current at 10 μM” value read?
Answer: 7%

Question: For `CC[C@H]1Oc2ccccc2C(=O)N2CCC[C@@H]12` [Example 20A, (11R, 11aS)-11-Ethyl-2,3,11,11a-tetrahydro-1H,5H-pyrrolo[2,1-c][1,4]benzoxazepine-5-one], which “% Increase In steady state current at 10 μM” value is on record?
Answer: 31%

Tested on: not listed separately
Test: Differential Reinforcement of Low Rates of Responding, 72 Seconds (DRL72)
Type: in vivo
Conditions: rats; intraperitoneal route 30 minutes before the test session
Protocol: Rats are pretrained in a standard operant chamber to perform a DRL72 procedure according to Andrews et al (Andrews J S, Jansen J H M, Linders S, Princen A, Drinkenburg W H I M, Coenders C J H and Vossen J H M (1994). Effects of imipramine and mirtazapine on operant performance in rats. Drug Development Research, 32:58-66). The test session lasts for 60 minutes with no limit to the number of trials. Each trial begins with the stimulus light on above the active lever. A response on the lever only results in delivery of a pellet if 72 seconds has elapsed. A response on the lever before 72 seconds has elapsed resets the timer and is not rewarded. The number of pellets earned and the number of lever presses is recorded and used to calculate an efficiency score. Test compounds are administered via the intraperitoneal route 30 minutes before the start of the test session. Antidepressants increase the number of pellets earned and decrease the number of lever presses (Andrews et al, 1994).

Question: For `O=C1c2cccc(F)c2OC[C@@H]2CCCN12` [Example 3B, (S)-9-Fluoro-2,3,11,11a-tetrahydro-1H,5H-pyrrolo[2,1-c][1,4]benzoxazepine-5-one], which “antidepressant like profile in DRL72” value is on record?
Answer: antidepressant like profile

Tested on: not listed separately
Test: Inhibition of amphetamine-induced hyperlocomotion
Type: in vivo
Conditions: mice; sc, 30 minutes before 1.5 mg/kg d-amphetamine sulphate sc; measured for 60 minutes
Protocol: Mice were injected sc with drug or vehicle control. 30 Minutes later mice were injected sc with 1.5 mg/kg d-amphetamine sulphate or saline and immediately placed in infra red locomotor boxes where locomotor activity (long duration beam breaks of two adjacent beams) and stereotypic behaviour (repetitive short-duration beam breaks) were measured for a period of 60 minutes. The experiment was analysed using a 3-Way ANOVA with experimental session, infra red locomotor boxes and treatment as factors, and in the case of treatment, significant effects were followed up using a Tukey (HSD) test.

Question: Which “antipsychotic like activity (inhibited amphetamine induced hyperlocomotion)” value does the source give for `O=C1c2cccc(F)c2OC[C@H]2CCCN12` [Example 3A, (R)-9-Fluoro-2,3,11,11a-tetrahydro-1H,5H-pyrrolo[2,1c][1,4]benzoxazepine-5-one] here?
Answer: antipsychotic like activity

Question: For `O=C1c2ccccc2OC[C@@H]2CCCN12` [(S)-2,3,11,11a-tetrahydro-1H,5H-pyrrolo[2,1-c][1,4]benzoxazepine-5-one, reference compound], which “antipsychotic like activity (inhibited amphetamine induced hyperlocomotion)” value is on record?
Answer: antipsychotic like activity

Tested on: not given
Test: not given
Conditions: not given

Question: Which melting point does the source give for `O=C1c2ccc(F)cc2OC[C@@H]2CCCN12` [Example 5, (S)-8-fluoro-2,3,11,11a-tetrahydro-1H,5H-pyrrolo[2,1-c][1,4]benzoxazepine-5-one] here?
Answer: 75 to 76 °C

Question: Which melting point does the source give for `O=C1c2cccc(Cl)c2OC[C@@H]2CCCN12` [Example 8, (S)-9-Chloro-2,3,11,11a-tetrahydro-1H,5H-pyrrolo[2,1-c][1,4]benzoxazepine-5-one] here?
Answer: 89 to 90 °C

Question: With `O=C1c2ccc(Cl)cc2OC[C@H]2CCCN12` [Example 4, (R)-8-chloro-2,3,11,11a-tetrahydro-1H,5H-pyrrolo[2,1-c][1,4]benzoxazepine-5-one] as the molecule, how does the melting point read?
Answer: 92 to 94 °C

Question: For `O=C(c1ccc2c(c1)C(=O)N1CCC[C@H]1CO2)N1CCCCC1` [Example 15, (S)-7-(Piperidinocarbonyl)-2,3,11,11a-tetrahydro-1H,5H-pyrrolo[2,1-c][1,4]benzoxazepine-5], which melting point is on record?
Answer: 140 to 140.5 °C

Question: Which melting point does the source give for `N#Cc1ccc2c(c1)C(=O)N1CCC[C@@H]1CO2` [Example 19, (R)-7-Cyano-2,3,11,11a-tetrahydro-1H5H-pyrrolo[2,1-c][1,4]benzoxazepine-5-one] here?
Answer: 164 to 165 °C
